Assay results: patent US20100015220A1, “NIACIN AND NSAID COMBINATION THERAPY” (priority 2008, published 2010)
Like-named read-outs stand apart in the source and are kept apart here.

Tests used:
[1] = ASA and salicylic acid plasma pharmacokinetic profiles; assay type: in vivo; settings: for Cmax: plasma, oral; for aspirin plasma AUC / salicylic acid plasma AUC: in vivo
[2] = in vivo; cited from earlier work
[3] = Example 2 safety: monitoring of adverse events; assay type: in vivo, healthy volunteers
Procedure: Safety was assessed be assessing flushing episodes and by monitoring of other adverse events.
An adverse event (AE) is any unfavorable and unintended sign including an abnormal laboratory finding, symptom, or disease temporally associated with the use of a medical product, whether or not considered related to the study drug. The severity rating was scaled based on the following categories: • mild—awareness of a symptom, but easily tolerated; • moderate—discomfort enough to cause interference with usual activity; • severe—incapacitating with inability to work or perform usual activity.
A total of 54 subjects were enrolled in the study. Forty-six subjects completed all three dosing periods and have contributed data to the evaluation of flushing parameters. A total of 51 subjects were exposed to Treatment A (240 mg ASA), 50 to B (60 mg ASA), and 50 to C (Placebo); these subjects comprise the population for evaluation of safety parameters.

[4] = tested on: flushing following niacin dosing; experiment: Example 1 clinical study: anti-flushing effect of aspirin regimen on immediate release niacin; assay type: in vivo, healthy volunteers; settings: 243 mg aspirin per day for four days plus 20 mg/hr from 6 h before to 5 h after immediate release niacin; vs placebo
Excerpt: Provided is the clinical study to establish an anti-flushing effect of aspirin regimen on immediate release niacin. The primary endpoints for this study were treatment group comparisons of: • incidence, duration and severity of flushing following niacin dosing; • routine monitoring adverse events. Subjects have screening procedures performed up to 4 weeks prior to the first dosing visit. All qualified subjects received two single doses of niacin one week apart. Subjects were randomized to receive either an aspirin regimen or a placebo regimen prior to their niacin dose on day 1 and the opposite regimen prior to their niacin dose on day 8. At randomization, subjects received blinded study medication to be taken in the morning and evening of days −4, −3, −2 and −1. Subjects checked into the clinic on day −1 and remained housed for approximately 24 hours after niacin dosing on day 1. Prior to leaving the clinic, they received blinded study medication to be taken on the morning and evening of days 4, 5, 6, and 7. Subjects returned to the clinic on day 7 and remained housed for approximately 24 hours after niacin dosing on day 8. […] Episodes of flushing (including burning, itching, crawling sensation, pain and/or reddening of the skin, fever-like sensation) were recorded with start and end time and maximum severity captured. […]

[5] = tested on: flushing induced by nicotinic acid; settings: humans; total 975 mg aspirin (650 mg at 1 hr and 325 mg at 0.5 hr prior to high dose nicotinic acid); cited from earlier work
[6] = tested on: flushing induced by nicotinic acid; settings: guinea pigs; aspirin 50, 100 or 200 mg/kg; cited from earlier work
[7] = tested on: flushing associated with single-dose administration of extended-release niacin (Niaspan); experiment: Example 2 three-way cross-over study: anti-flushing effects of two aspirin regimens versus placebo on extended release niacin; assay type: in vivo, healthy volunteers; settings: for subjects who experienced a flushing response: 2 g extended-release niacin; for subjects who experienced a flushing response / total number of flushing episodes: 46 subjects; for maximum severity of flushing, mean / maximum severity of flushing, median: 100 mm VAS; for total cumulative duration of flushing, mean / total cumulative duration of flushing, median: start of first episode to end of last
Excerpt: To assess the ability of two aspirin regimens to decrease flushing associated with single-dose administration of extended-release niacin (Niaspan®). […] Study subjects remained housed overnight at the clinical research center following niacin dosing to carefully monitor for flushing reactions and other adverse events. Each subject received all three dosing regimens in a randomized, three-way cross-over fashion. Subjects have screening procedures performed up to 4 weeks prior to Period 1 Day (the first dosing visit), including assessment of flushing response to a 500 mg immediate release niacin (Niacor®) challenge. All qualified subjects received three single doses of extended-release niacin at least one week apart during three treatment periods. Subjects were randomized to receive one of the two aspirin regimens or placebo prior to their niacin dose on Day 1 of each treatment period. At randomization, subjects received blinded study medication to be taken in the evening of days -3 and -2. For each treatment period, subjects checked into the clinic on Day -1 and remained housed for at least 18 hours after niacin dosing on Day 1. Prior to leaving the clinic during treatment periods 1 and 2, subjects received blinded study medication to be taken in the morning and evening of Days -3 and -2 of the next treatment period. End of study procedures was performed on Day 2 of treatment period 3 240 mg […]. for three days prior to niacin dosing plus 30 mg ASA per hour for eight hours, starting 4 hours prior to niacin dosing. 10 mg ASA per hour for 6 hours prior to niacin dosing. This regimen tested whether a lower dose of aspirin without an aspirin lead-in, and given entirely prior to niacin dosing, was sufficient to diminish flushing. No aspirin. This regimen acted as the negative control. Niaspan®, as well as blinded aspirin or placebo, for oral administration during the inpatient portion of each treatment period (Day -1 and Day 1) were dispensed by study pharmacist and administered to the subject by study personnel. Aspirin or placebo were administered in the evening on Day -1 and hourly on Day 1 for 6 hours before, concurrently with, and hourly for 3 hours after the Niaspan® dose. Episodes of flushing (including burning, itching, crawling sensation, pain and/or reddening of the skin, fever-like sensation) were recorded with start and end time maximum severity, and individual symptoms captured. A 100 mm visual analog scale (0=no flushing symptoms; 100=intolerable symptoms) was used to capture severity as reported by the subject. For each subject during each treatment period, the number of episodes of flushing, maximum severity of all episodes of flushing, and total duration of flushing, from start of the first episode to the end of the last episode, was calculated and summarized by treatment regimen. […] A total of 54 subjects were enrolled in the study. Forty-six subjects completed all three dosing periods and have contributed data to the evaluation of flushing parameters. A total of 51 subjects were exposed to Treatment A (240 mg ASA), 50 to B (60 mg ASA), and 50 to C (Placebo); these subjects comprise the population for evaluation of safety parameters.

O=C(O)c1ccccc1O [salicylic acid]
Cmax ([1]; 160 mg, fast release rate): ~2600 ng/mL | Cmax ([1]; 160 mg, intermediate release rate): ~1700 ng/mL | Cmax ([1]; 160 mg, slow release rate): ~1200 ng/mL | Cmax ([1]; 240 mg, fast release rate): ~3700 ng/mL | Cmax ([1]; 240 mg, intermediate release rate): ~2600 ng/mL | Cmax ([1]; 240 mg, slow release rate): ~1800 ng/mL | Cmax ([1]; 324 mg, fast release rate): ~5000 ng/mL | Cmax ([1]; 324 mg, intermediate release rate): ~3500 ng/mL | Cmax ([1]; 324 mg, slow release rate): ~2400 ng/mL

O=C(O)c1cccnc1 [Niacin, nicotinic acid]
reduces Lp(a) levels [2]: about 40%

CC(=O)Oc1ccccc1C(=O)O [ASA, acetyl salicylic acid]
adverse events involving gastrointestinal disorders ([3]; 60 mg ASA): 3 subjects | headache ([3]; 60 mg ASA): 5 subjects | Number of AEs ([3]; 60 mg ASA (n = 50)): 14 | Subjects with AEs Leading to Withdrawal ([3]; 60 mg ASA (n = 50)): 0 (0.0%) subjects (%) | Subjects with Serious AEs ([3]; 60 mg ASA (n = 50)): 0 (0.0%) subjects (%) | Subjects with Severe AEs ([3]; 60 mg ASA (n = 50)): 0 (0.0%) subjects (%) | Subjects with any AE ([3]; 60 mg ASA (n = 50)): 10 (20.0%) subjects (%) | Subjects with any CTM-related AE ([3]; 60 mg ASA (n = 50)): 7 (14.0%) subjects (%) | adverse events involving gastrointestinal disorders ([3]; 240 mg ASA): 4 subjects | headache ([3]; 240 mg ASA): 4 subjects | Number of AEs ([3]; 240 mg ASA (n = 51)): 14 | Subjects with AEs Leading to Withdrawal ([3]; 240 mg ASA (n = 51)): 0 (0.0%) subjects (%) | Subjects with Serious AEs ([3]; 240 mg ASA (n = 51)): 0 (0.0%) subjects (%) | Subjects with Severe AEs ([3]; 240 mg ASA (n = 51)): 0 (0.0%) subjects (%) | Subjects with any AE ([3]; 240 mg ASA (n = 51)): 12 (23.5%) subjects (%) | Subjects with any CTM-related AE ([3]; 240 mg ASA (n = 51)): 7 (13.7%) subjects (%) | reduction in mean flush intensity [4]: 53% | reduction in median flush intensity [4]: 77% | flushing induced by nicotinic acid [5]: reduce the flushing induced by nicotinic acid | flushing induced by nicotinic acid [6]: reduce the flushing induced by nicotinic acid | aspirin plasma AUC ([1]; 160 mg): ~800 ngml^−1h | salicylic acid plasma AUC ([1]; 160 mg): ~11000 ngml^−1h | aspirin plasma AUC ([1]; 240 mg): ~1200 ngml^−1h | salicylic acid plasma AUC ([1]; 240 mg): ~16300 ngml^−1h | aspirin plasma AUC ([1]; 324 mg): ~1600 ngml^−1h | salicylic acid plasma AUC ([1]; 324 mg): ~22000 ngml^−1h | episodes of flushing per subject, mean ([7]; 60 mg ASA): 1.4 | subjects who experienced a flushing response ([7]; 60 mg ASA (Treatment B)): 87% | incidence of itching, crawling, reddening and fever-like sensation of the skin ([7]; 60 mg ASA compared to placebo): occurred less frequently | times more likely to have fewer episodes of flushing ([7]; 60 mg ASA compared to placebo (p>0.10)): 1.3 times | total number of flushing episodes ([7]; 60 mg ASA): 64 episodes | maximum severity of flushing, mean ([7]; 60 mg ASA): 36.1 mm | maximum severity of flushing, median ([7]; 60 mg ASA): 35.0 mm | total cumulative duration of flushing, mean ([7]; 60 mg ASA): 101.8 min | total cumulative duration of flushing, median ([7]; 60 mg ASA): 84.0 min | episodes of flushing per subject, mean ([7]; 240 mg ASA): 1.1 | subjects who experienced a flushing response ([7]; 240 mg ASA (Treatment A)): 74% | incidence of individual flushing symptoms ([7]; 240 mg ASA compared to 60 mg ASA or placebo): lower incidence of each flushing symptom | times more likely to have fewer episodes of flushing ([7]; 240 mg ASA compared to 60 mg ASA, multinomial logistic regression (p=0.05)): 1.7 times | times more likely to have fewer episodes of flushing ([7]; 240 mg ASA compared to placebo, multinomial logistic regression (p=0.01)): 2.1 times | total number of flushing episodes ([7]; 240 mg ASA): 52 episodes | maximum severity of flushing, mean ([7]; 240 mg ASA): 25.8 mm | maximum severity of flushing, median ([7]; 240 mg ASA): 20.0 mm | total cumulative duration of flushing, mean ([7]; 240 mg ASA): 67.1 min | total cumulative duration of flushing, median ([7]; 240 mg ASA): 44.5 min
